Data set [1] is described as follows: Clearance in Beagle dog at 0.5 mg/kg, iv and 1.0 mg/kg, po. The following applies: in vivo. It counts as ADME, organism-based, Canis lupus familiaris.
A short description of data set [2]: Half life in Sprague-Dawley rat at 1 mg/kg, iv and 4 mg/kg, po. Format: ADME, organism-based. The following applies: in vivo.
The target of data set [3] is Melanocortin receptor 4 (Mus musculus, UniProt P56450). Put plainly: Agonist activity at mouse MC4R expressed in CHO cells assessed as stimulation of intracellular cAMP accumulation. Format: functional, cell-based. (In general: Changes in cAMP serve as a functional read-out for many G protein-coupled receptors.)
Data set [4] is described as follows: Volume of distribution at steady state in Beagle dog at 0.5 mg/kg, iv and 1.0 mg/kg, po. Format: ADME, organism-based, Canis lupus familiaris. The following applies: in vivo, read-out: Vdss.
The nature of data set [5]: Volume of distribution at steady state in rhesus monkey at 0.5 mg/kg, iv and 2 mg/kg, po. The following applies: in vivo, read-out: Vdss. Format: ADME, organism-based, Macaca mulatta.
The target of data set [6] is T1, Melanocortin receptor 4 (Homo sapiens, UniProt P32245). Put plainly: Agonist activity at human MC4R expressed in CHO cells assessed as stimulation of intracellular cAMP accumulation. It counts as functional, cell-based.
The target of data set [7] is T2, Melanocortin receptor 5 (Homo sapiens, UniProt P33032). Put plainly: Agonist activity at human MC5R expressed in CHO cells assessed as stimulation of intracellular cAMP accumulation at 10 uM relative to alpha-MSH. Format: functional, cell-based.
The subject of data set [8] is Rattus norvegicus. Put plainly: Antiobesity activity in po dosed DIO rat assessed as decrease in food intake after 14 days.
Data set [9] in a line: Half life in rhesus monkey at 0.5 mg/kg, iv and 2 mg/kg, po. It counts as ADME, organism-based, Macaca mulatta. The following applies: in vivo.
In data set [10] the target is Melanocortin receptor 3 (Rattus norvegicus, UniProt P32244). Put plainly: Agonist activity at rat MC3R expressed in CHO cells assessed as stimulation of intracellular cAMP accumulation. Format: functional, cell-based.
Data set [11] concerns the target T1, Melanocortin receptor 4. Put plainly: Displacement of [125I]NDP-alpha-MSH from human MC4R expressed in CHO cells. Format: cell-based. A general note: Displacement assays read how much labelled ligand stays bound in the presence of the test substance.
Data set [12] addresses Melanocortin receptor 3 (Rattus norvegicus) (UniProt P32244). The data set is described as follows: Agonist activity at rat MC3R expressed in CHO cells assessed as stimulation of intracellular cAMP accumulation at 10 uM relative to alpha-MSH. It counts as functional, cell-based.
In data set [13] the target is Melanocortin receptor 4 (Mus musculus) (UniProt P56450). Put plainly: Agonist activity at mouse MC4R expressed in CHO cells assessed as stimulation of intracellular cAMP accumulation at 10 uM relative to alpha-MSH. Format: functional, cell-based.
Data set [14] can be described thus: Clearance in Sprague-Dawley rat at 1 mg/kg, iv and 4 mg/kg, po. Format: ADME, organism-based. The following applies: in vivo.
Data set [15] has as its target T1, Melanocortin receptor 4. Put plainly: Agonist activity at human MC4R expressed in CHO cells assessed as stimulation of intracellular cAMP accumulation at 10 uM relative to alpha-MSH. It counts as functional, cell-based.
The test system of data set [16] is Rattus norvegicus. The data set is described as follows: Erectogenic activity in rat assessed as spontaneous erections at 0.01 mg/kg, iv for 30 mins. Format: functional.
The nature of data set [17]: Bioavailability in Beagle dog at 0.5 mg/kg, iv and 1.0 mg/kg, po. It counts as ADME, organism-based, Canis lupus familiaris. The following applies: in vivo.
Data set [18] deals with Rattus norvegicus. Put plainly: Erectogenic activity in rat assessed as spontaneous erections at 1 mg/kg, iv for 30 mins. It counts as functional.
The nature of data set [19]: Half life in Beagle dog at 0.5 mg/kg, iv and 1.0 mg/kg, po. Format: ADME, organism-based, Canis lupus familiaris. The following applies: in vivo.
For data set [20], the target named is T3, Melanocyte-stimulating hormone receptor (Homo sapiens, UniProt Q01726). The data set is described as follows: Displacement of [125I]NDP-alpha-MSH from human MC1R expressed in CHO cells. It counts as cell-based.
Target sequence in this assay (Q01726 whole entry): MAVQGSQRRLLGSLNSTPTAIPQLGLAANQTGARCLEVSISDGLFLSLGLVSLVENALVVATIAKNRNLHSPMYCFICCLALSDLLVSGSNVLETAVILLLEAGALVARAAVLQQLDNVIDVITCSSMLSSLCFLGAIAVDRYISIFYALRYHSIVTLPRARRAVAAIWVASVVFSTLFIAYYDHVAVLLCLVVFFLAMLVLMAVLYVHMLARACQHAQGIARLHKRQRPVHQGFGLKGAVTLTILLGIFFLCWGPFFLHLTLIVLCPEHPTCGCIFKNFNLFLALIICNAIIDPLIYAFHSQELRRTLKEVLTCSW
For data set [21], the target named is Melanocortin receptor 4 (Rattus norvegicus, UniProt P70596). Put plainly: Agonist activity at rat MC4R expressed in CHO cells assessed as stimulation of intracellular cAMP accumulation. Format: functional, cell-based.
Data set [22] deals with T4, Melanocortin receptor 3 (Homo sapiens, UniProt P41968). The data set is described as follows: Agonist activity at human MC3R expressed in CHO cells assessed as stimulation of intracellular cAMP accumulation at 10 uM relative to alpha-MSH. Format: functional, cell-based.
Data set [23] addresses T3, Melanocyte-stimulating hormone receptor. Put plainly: Agonist activity at human MC1R expressed in CHO cells assessed as stimulation of intracellular cAMP accumulation. It counts as functional, cell-based.
Target sequence in this assay (Q01726 whole entry): as above
Data set [24] relates to Rattus norvegicus. The data set is described as follows: Antiobesity activity in po dosed DIO rat assessed as decrease in body weight after 14 days.
A short description of data set [25]: Bioavailability in Sprague-Dawley rat at 1 mg/kg, iv and 4 mg/kg, po. Format: ADME, organism-based. The following applies: in vivo.
In data set [26] the target is T3, Melanocyte-stimulating hormone receptor. Put plainly: Agonist activity at human MC1R expressed in CHO cells assessed as stimulation of intracellular cAMP accumulation at 10 uM relative to alpha-MSH. Format: functional, cell-based.
Target sequence in this assay (Q01726 whole entry, looked up): as the sequence (Q01726 whole entry) above
Data set [27] deals with T2, Melanocortin receptor 5. Put plainly: Displacement of [125I]NDP-alpha-MSH from human MC5R expressed in CHO cells. It counts as cell-based.
Data set [28] is described as follows: Bioavailability in rhesus monkey at 0.5 mg/kg, iv and 2 mg/kg, po. The following applies: in vivo. Format: ADME, organism-based, Macaca mulatta.
Data set [29] concerns Rattus norvegicus. Put plainly: Erectogenic activity in rat assessed as spontaneous erections at 0.001 mg/kg, iv for 30 mins. It counts as functional.
Data set [30] has as its system Rattus norvegicus. Put plainly: Erectogenic activity in rat assessed as spontaneous erections at 0.1 mg/kg, iv for 30 mins. Format: functional.
In data set [31] the test system is Rattus norvegicus. The data set is described as follows: Erectogenic activity in iv dosed rat assessed as spontaneous erections measured for 30 mins. It counts as functional, organism-based.
In data set [32] the target is T4, Melanocortin receptor 3. The data set is described as follows: Agonist activity at human MC3R expressed in CHO cells assessed as stimulation of intracellular cAMP accumulation. It counts as functional, cell-based.
Data set [33] addresses Melanocortin receptor 4 (Rattus norvegicus) (UniProt P70596). Put plainly: Agonist activity at rat MC4R expressed in CHO cells assessed as stimulation of intracellular cAMP accumulation at 10 uM relative to alpha-MSH. Format: functional, cell-based.
Data set [34] in a line: Clearance in rhesus monkey at 0.5 mg/kg, iv and 2 mg/kg, po. The following applies: in vivo. It counts as ADME, organism-based, Macaca mulatta.
In data set [35] the test system is Rattus norvegicus. The data set is described as follows: Erectogenic activity in rat assessed as spontaneous erections at 3 mg/kg, iv for 30 mins. Format: functional.
Data set [36] relates to Rattus norvegicus. The data set is described as follows: Erectogenic activity in rat assessed as spontaneous erections at 1 ug/kg, iv for 30 mins. It counts as functional.
Data set [37] is described as follows: Volume of distribution at steady state in Sprague-Dawley rat at 1 mg/kg, iv and 4 mg/kg, po. It counts as ADME, organism-based. The following applies: in vivo, read-out: Vdss.
Data set [38] addresses T4, Melanocortin receptor 3. Put plainly: Displacement of [125I]NDP-alpha-MSH from human MC3R expressed in CHO cells. It counts as cell-based.

The structures appear in SMILES notation.

T1 sequence (P32245 whole entry): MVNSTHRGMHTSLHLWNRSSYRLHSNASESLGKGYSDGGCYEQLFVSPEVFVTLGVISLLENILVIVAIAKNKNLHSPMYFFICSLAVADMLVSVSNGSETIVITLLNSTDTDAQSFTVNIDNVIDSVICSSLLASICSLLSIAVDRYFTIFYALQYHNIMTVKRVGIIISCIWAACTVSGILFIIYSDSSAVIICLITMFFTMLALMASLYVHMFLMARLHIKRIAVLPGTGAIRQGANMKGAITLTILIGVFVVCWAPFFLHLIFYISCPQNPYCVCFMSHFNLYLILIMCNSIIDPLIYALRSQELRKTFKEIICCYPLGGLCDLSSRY
T4 sequence (P41968 whole entry): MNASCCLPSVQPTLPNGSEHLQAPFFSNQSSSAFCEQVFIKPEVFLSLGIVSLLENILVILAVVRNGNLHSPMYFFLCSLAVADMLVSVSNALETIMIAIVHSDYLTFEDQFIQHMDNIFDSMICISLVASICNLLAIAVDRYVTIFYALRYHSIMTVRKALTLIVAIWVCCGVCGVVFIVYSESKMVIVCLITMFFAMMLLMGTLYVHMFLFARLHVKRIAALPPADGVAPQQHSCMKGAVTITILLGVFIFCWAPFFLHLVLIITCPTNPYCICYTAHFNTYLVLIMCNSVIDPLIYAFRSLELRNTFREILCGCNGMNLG
T2 sequence (P33032 whole entry): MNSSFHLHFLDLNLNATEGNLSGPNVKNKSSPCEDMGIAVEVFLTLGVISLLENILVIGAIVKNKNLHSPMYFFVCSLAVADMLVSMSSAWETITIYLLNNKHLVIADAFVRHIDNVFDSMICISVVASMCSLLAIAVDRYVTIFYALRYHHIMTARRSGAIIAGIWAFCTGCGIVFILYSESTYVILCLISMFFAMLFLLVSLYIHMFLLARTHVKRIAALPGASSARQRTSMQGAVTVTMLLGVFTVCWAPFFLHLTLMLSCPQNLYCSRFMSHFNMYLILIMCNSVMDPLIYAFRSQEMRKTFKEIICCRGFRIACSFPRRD
Melanocortin receptor 3 (Rattus norvegicus, UniProt P32244), sequence (P32244 whole entry): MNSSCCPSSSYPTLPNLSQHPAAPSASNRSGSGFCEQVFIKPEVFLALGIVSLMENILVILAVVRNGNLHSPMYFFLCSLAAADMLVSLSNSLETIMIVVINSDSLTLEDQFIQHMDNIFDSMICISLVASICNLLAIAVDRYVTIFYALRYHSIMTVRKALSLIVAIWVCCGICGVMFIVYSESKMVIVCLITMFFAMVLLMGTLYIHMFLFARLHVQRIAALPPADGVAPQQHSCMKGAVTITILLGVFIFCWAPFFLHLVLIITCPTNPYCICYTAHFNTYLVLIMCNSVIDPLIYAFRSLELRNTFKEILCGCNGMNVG
Melanocortin receptor 3 (Rattus norvegicus), sequence (P32244 whole entry): as above
Melanocortin receptor 4 (Rattus norvegicus, UniProt P70596), sequence (P70596 whole entry): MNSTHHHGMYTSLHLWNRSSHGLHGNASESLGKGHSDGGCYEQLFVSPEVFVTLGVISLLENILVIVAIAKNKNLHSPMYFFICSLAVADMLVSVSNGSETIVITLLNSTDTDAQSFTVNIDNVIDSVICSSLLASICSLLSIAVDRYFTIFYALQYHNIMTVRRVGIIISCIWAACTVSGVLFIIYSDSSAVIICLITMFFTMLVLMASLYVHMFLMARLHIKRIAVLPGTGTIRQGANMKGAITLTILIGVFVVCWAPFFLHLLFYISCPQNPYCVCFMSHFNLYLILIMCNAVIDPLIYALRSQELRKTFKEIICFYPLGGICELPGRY
Melanocortin receptor 4 (Rattus norvegicus), sequence (P70596 whole entry): as above
Melanocortin receptor 4 (Mus musculus, UniProt P56450), sequence (P56450 whole entry): as the sequence (P70596 whole entry) above, with H21Y, S36P, T199S, A239T, P329S, G330S counted along it
Melanocortin receptor 4 (Mus musculus), sequence (P56450 whole entry): as the sequence (P70596 whole entry) above, with H21Y, S36P, T199S, A239T, P329S, G330S counted along it

In the case of `CC(=O)NC(C)(C)[C@@H]1CC2(CCN(C(=O)[C@@H]3CN(C(C)(C)C)C[C@H]3c3ccc(F)cc3F)CC2)c2cc(Cl)c(C)cc21`, the results for the clearance in data set [1], in data set [14] and in [34] were 3.5 mL/min/kg, 12 mL/min/kg and 9.6 mL/min/kg, respectively. Also, the half-life (usually the time needed for the level to fall by half in the phase considered) in [2] is 4.5 h; in data set [9], 3.9 h; in data set [19], 11.2 h. Besides, the 50% effective concentration (EC50) (commonly the concentration giving half of the maximal effect) came to 0.022 µM on Melanocortin receptor 4 [3]; 0.0049 µM on Melanocortin receptor 4 [6]; 0.997 µM on Melanocortin receptor 3 [10]; 0.002 µM at Melanocortin receptor 4 [21]; 1.02 µM in [23]; 0.351 µM on Melanocortin receptor 3 [32]. The Vd amounted to 3.5 L/kg in [4], 3.5 L/kg in [5] and 5.1 L/kg in data set [37]. In addition, the Activity on Melanocortin receptor 5 [7] was 9%; with Rattus norvegicus [8], “Dose-dependent effect”; in [12], 97%; in [13] it was 197%; in the data set with Rattus norvegicus [16], 92%; in the data set with Rattus norvegicus [18] it was 88%. Further, the Activity is 71% at Melanocortin receptor 3 [22]; “Dose-dependent effect” with Rattus norvegicus [24]; 75% with Rattus norvegicus [29]; 100% in the data set on Rattus norvegicus [30]; “Dose-dependent effect” with Rattus norvegicus [31]; 126% in data set [33]. In addition, the Activity with Rattus norvegicus [35] came out at 75%; in the data set with Rattus norvegicus [36], 83%. Further, the IC50 (usually the concentration that gives 50% inhibition) was found to be 0.013 µM at Melanocortin receptor 4 [11], 1.94 µM in data set [20], 0.0839 µM on Melanocortin receptor 5 [27] and 0.89 µM on Melanocortin receptor 3 [38]. For the same molecule, the Emax (commonly the greatest response seen or fitted, relative to the assay's reference) stood at 105% at Melanocortin receptor 4 [15] and 18% in data set [26]. In addition, the values for the bioavailability in data set [17], in data set [25] and in data set [28] were 71%, 33% and 53%, respectively.

On to `CC(=O)NC(C)(C)[C@@H]1CC2(CCN(C(=O)[C@H]3CN(C(C)(C)C)C[C@@H]3c3ccc(F)cc3F)CC2)c2cc(Cl)c(C)cc21`, for which, on Melanocortin receptor 4 [6], the half-maximal effective concentration (EC50) is 0.094 µM. Moreover, at Melanocortin receptor 4 [11], the IC50 worked out at 0.089 µM. Moreover, the maximal response (Emax) on Melanocortin receptor 4 [15] was determined as 107%; in [26] it was 15%.

Turning to `CC(=O)NC(C)(C)[C@H]1CC2(CCN(C(=O)[C@@H]3CN(C(C)(C)C)C[C@H]3c3ccc(F)cc3F)CC2)c2cc(Cl)c(C)cc21`, the EC50 at Melanocortin receptor 4 [6] was found to be 0.0032 µM; in [23], 0.228 µM. On Melanocortin receptor 4 [11], this molecule yielded an IC50 of 0.0043 µM. Further, the values for the maximal effect (Emax) (on Melanocortin receptor 4 [15]; in data set [26]) were 97% and 39%, respectively.

For `CC(=O)NC(C)(C)[C@H]1CC2(CCN(C(=O)[C@H]3CN(C(C)(C)C)C[C@@H]3c3ccc(F)cc3F)CC2)c2cc(Cl)c(C)cc21`, the EC50 at Melanocortin receptor 4 [6] came to 0.0372 µM; in [23], 0.62 µM. This molecule also gave a 50% inhibitory concentration (IC50) at Melanocortin receptor 4 [11] of 0.0397 µM. For the same molecule, the Emax at Melanocortin receptor 4 [15] turned out to be 111%; in [26], 41%.
